Data from US10392422B2, “Macrocyclic broad spectrum antibiotics” (priority 2014, dated 2019).
≈ marks a conversion by molar mass, not a printed value. Like-named read-outs stand apart in the source and are kept apart here.

How the values were obtained:
Experiment in all cases: MIC, broth micro-dilution technique (CLSI)
[1] = system: Escherichia coli MC4100 harboring the IMP4213; format: cell-based; settings: for MIC: Escherichia coli, 22 h
Protocol: (§1) In vitro antimicrobial activity of each compound was determined by measuring minimal inhibitor concentrations (MICs) using the broth micro-dilution technique as approved by the Clinical and Laboratory Standards Institute (CLSI) (Methods for Dilution Antimicrobial Susceptibility Tests for Bacteria that Grow Aerobically; Approved Standard—Eighth Edition. CLSI document M07-A8. Wayne, Pa.: Clinical and Laboratory Standards; 2009). Antibacterial activity was measured against three strains of bacteria: a Methicillin Resistant Staphylococcus aureus strain USA 300 (NRS384); a MRSA COL (NRS100), another Methicillin Resistant Staphylococcus aureus strain; and a strain of Escherichia coli MC4100 harboring the IMP4213, which results in increased outer-membrane permeability (B Martin and Silhavy T. Imp/OstA is required for cell envelope biogenesis in Escherichia coli. (2002) Molecular Microbiology, 45(5), 1289-1302). Cells were inoculated onto plates of Trypyticase Soy Agar or Luria Agar respectively and grown at 35° C. for 20 hours. Inocula suspensions were prepared by scraping cells into 1 ml of testing media (cation adjusted Mueller Hinton Broth supplemented with 0.002% v/v Tween-80) and diluting to a final OD600 nm of 0.01.
(§2) Test compounds were prepared in DMSO at a concentration of 10 mg/ml. These compound stocks were diluted into testing media at a concentration of 64 μg/ml and serial 2-fold dilutions were made in the same media, in 96-well U bottom microtiter dishes, for a total of 10 compound concentrations (Table 1). In modified protocols (Table 2), compound stocks were diluted into testing media at a concentration of 4 μg/mL and serial 2-fold dilutions were made in the same media, in 96-well U bottom microtiter dishes, for a total of 10 compound concentrations. Inocula suspensions were added to the 2-fold serial dilutions of test compounds to a final density of OD OD600 nm of 0.0005 and incubated at 35° C. for 22 hours. […] The results from the protocol starting from a concentration of 64 µg/mL are listed in Table 1 and the results from the modified protocol are shown in Table 2.

[2] = system: Methicillin Resistant Staphylococcus aureus strain USA 300 (NRS384); format: cell-based; settings: for MIC: Staphylococcus aureus, 22 h, read-out: MIC (μg/mL) S. aureus
Protocol: as §1, §2

MRSA COL (NRS100) = format: cell-based, Staphylococcus aureus; settings: for MIC: Staphylococcus aureus, 22 h, read-out: MIC (μg/mL) (COL)
Protocol: as §1, §2

[3] = read-out: MIC (μg/mL) E. coli, Table 1 protocol: serial 2-fold dilutions starting from 64 μg/ml, 35° C., 22 hours
[4] = Table 1 protocol: serial 2-fold dilutions starting from 64 μg/ml, 35° C., 22 hours
[5] = read-out: MIC (μg/mL) E. coli, Table 2 modified protocol: serial 2-fold dilutions starting from 4 μg/mL, 35° C., 22 hours
[6] = Table 2 modified protocol: serial 2-fold dilutions starting from 4 μg/mL, 35° C., 22 hours

Row | SMILES | MIC [1, 3] [µg/mL] | MIC [2] [µg/mL] | MIC (MRSA COL (NRS100)) [µg/mL] | further results
1 | CC(=O)[C@H](C)NC(=O)[C@@H]1Cc2ccc(OCC(=O)O)c(c2)-c2cc(ccc2O)[C@H](N(C)C(=O)[C@H](CCCCN)NC(=O)c2ccc(-c3ccc(Cl)cc3)cc2)C(=O)N[C@@H](C)C(=O)N1 [Compound 207] | 32 (≈ 36.2 µM) |  |  | MIC [2, 4]: 32 µg/mL (≈ 36.2 µM); MIC (MRSA COL (NRS100); [4]): 6 µg/mL (≈ 6.79 µM)
2 | CCCCCCCCc1ccc(C(=O)N[C@@H](CCCN)C(=O)N(C)[C@@H]2C(=O)N[C@@H](C)C(=O)N[C@H](C(=O)NCB(O)O)Cc3ccc(OCCN)c(c3)-c3cc2ccc3OCCN)cc1 [Compound 326] |  |  |  | MIC [1, 5]: 0.19 µg/mL (≈ 0.214 µM); MIC [2, 6]: 0.25 µg/mL (≈ 0.282 µM); MIC (MRSA COL (NRS100); [6]): 0.13 µg/mL (≈ 0.147 µM)
3 | CCCCc1ccc(-c2ccc(C(=O)N[C@@H](CN)C(=O)N(C)[C@@H]3C(=O)N[C@@H](C)C(=O)N[C@H](C(=O)N[C@@H](C)B4O[C@@H]5C[C@@H]6C[C@@H](C6(C)C)[C@]5(C)O4)Cc4ccc(OCCN)c(c4)-c4cc3ccc4OCCN)cc2)cc1 [Compound 317] | 0.13 (≈ 0.127 µM) | 0.13 (≈ 0.127 µM) | 0.063 (≈ 0.0613 µM) | 
4 | C[C@@H]1NC(=O)[C@@H](N(C)C(=O)[C@H](CCCCN)NC(=O)c2ccc(-c3ccc(C(C)(C)C)cc3)cc2)c2ccc(OCCN)c(c2)-c2cc(ccc2OCCN)C[C@@H](C(=O)O)NC1=O [Compound 278] |  | 0.25 (≈ 0.289 µM) | 0.094 (≈ 0.109 µM) | MIC [1, 5]: 0.031 µg/mL (≈ 0.0359 µM)
5 | C[C@H](NC(=O)[C@@H]1Cc2ccc(O)c(c2)-c2cc(ccc2OCCN)[C@H](N(C)C(=O)[C@H](CCCCN)NC(=O)c2ccc(-c3ccc(Cl)cc3)cc2)C(=O)N[C@@H](C)C(=O)N1)C(=O)CO [Compound 118] | 2 (≈ 2.26 µM) | 1 (≈ 1.13 µM) | 0.63 (≈ 0.712 µM) | 
6 | CCCCCCCCCCNCC(=O)N(C)[C@@H]1C(=O)N[C@@H](C)C(=O)N[C@H](C(=O)N[C@@H](C)C(C)=O)Cc2ccc(OCCN)c(c2)-c2cc1ccc2OCCN.O=CO [Compound 269] |  |  |  | MIC (μg/mL) E. coli [1, 6]: >4 µg/mL; MIC (μg/mL) S. aureus [2, 6]: 0.38 µg/mL; MIC (μg/mL) (COL) (MRSA COL (NRS100); [6]): 0.13 µg/mL
7 | CC(=O)[C@H](C)NC(=O)[C@@H]1Cc2ccc(OCCO)c(c2)-c2cc(ccc2OCCN)[C@H](N(C)C(=O)[C@H](CCCCN)NC(=O)c2ccc(-c3ccc(Cl)cc3)cc2)C(=O)N[C@@H](C)C(=O)N1 [Compound 330] |  | 3 (≈ 3.29 µM) | 1 (≈ 1.1 µM) | MIC [1, 5]: > 4 µg/mL
8 | CC(=O)[C@H](C)NC(=O)[C@@H]1Cc2ccc(O)c(c2)-c2cc(cc(CCCN)c2OCCN)[C@H](N(C)C(=O)[C@H](CCCCN)NC(=O)c2ccc(-c3ccccc3)cc2)C(=O)N[C@@H](C)C(=O)N1 [Compound 213] | 4 (≈ 4.49 µM) |  |  | MIC [2, 4]: 16 µg/mL (≈ 18 µM); MIC (MRSA COL (NRS100); [4]): 2 µg/mL (≈ 2.24 µM)
9 | C[C@@H]1NC(=O)[C@@H](N(C)C(=O)[C@H](CCCCN)NC(=O)c2ccc(-c3ccc(Cl)cc3)cc2)c2ccc(O)c(c2)-c2cc(ccc2O)C[C@@H](C(=O)N[C@@H](C)C(=O)C(=O)O)NC1=O [Compound 140] | 8 (≈ 9.35 µM) | 23 (≈ 26.9 µM) | 8 (≈ 9.35 µM) | 
10 | CCCCCCCCCCNCC(=O)N[C@@H](CCCCN)C(=O)N(C)[C@@H]1C(=O)N[C@@H](C)C(=O)N[C@H](C(=O)N[C@@H](C)C(C)=O)Cc2ccc(O)c(c2)-c2cc1ccc2O [Compound 112] |  |  |  | MIC (μg/mL) E. coli [1, 4]: 64 µg/mL (≈ 79.2 µM); MIC (μg/mL) S. aureus [2, 4]: 2.8 µg/mL (≈ 3.47 µM); MIC (μg/mL) (COL) (MRSA COL (NRS100); [4]): 0.5 µg/mL (≈ 0.619 µM)
11 | C[C@@H]1NC(=O)[C@@H](N(C)C(=O)[C@H](CCCCN)NC(=O)c2ccc(-c3ccc(Cl)cc3)cc2)c2cc(c3oc(CN)cc3c2)-c2cc(ccc2O)C[C@@H](C(=O)O)NC1=O [Compound 211] | 2 (≈ 2.47 µM) | 11 (≈ 13.6 µM) | 2 (≈ 2.47 µM) | 
12 | C[C@H](NC(=O)[C@@H]1Cc2ccc(O)c(c2)-c2cc(ccc2OCCN)[C@H](N(C)C(=O)[C@H](CCCCN)NC(=O)c2ccc(-c3ccc(Cl)cc3)cc2)C(=O)N[C@@H](C)C(=O)N1)B1O[C@@H]2C[C@@H]3C[C@@H](C3(C)C)[C@]2(C)O1 [Compound 313] | 1 (≈ 0.996 µM) | 2 (≈ 1.99 µM) | 0.38 (≈ 0.378 µM) | 
13 | CCCCCCCCCCNCCS(=O)(=O)N[C@@H](CCCCN)C(=O)N(C)[C@@H]1C(=O)N[C@@H](C)C(=O)N[C@H](C(=O)N[C@@H](C)C(C)=O)Cc2ccc(O)c(c2)-c2cc1ccc2O [Compound 163] | 16 (≈ 18.6 µM) |  |  | MIC [2, 4]: 0.13 µg/mL (≈ 0.151 µM); MIC (MRSA COL (NRS100); [4]): 0.11 µg/mL (≈ 0.128 µM)
14 | C[C@@H]1NC(=O)[C@@H](N(C)C(=O)[C@H](CCCCN)NC(=O)c2ccc(-c3ccc(Cl)cc3)cc2)c2ccc(O)c(c2)-c2cc(ccc2O)C[C@@H](C(=O)NC/C=C/S(C)(=O)=O)NC1=O [Compound 236] | > 64 | 48 (≈ 55 µM) | 8 (≈ 9.16 µM) | 
15 | CCCCc1ccc(-c2ccc(C(=O)N[C@@H](CCCCN)C(=O)N(C)[C@@H]3C(=O)N[C@@H](C)C(=O)N[C@H](C(=O)O)Cc4ccc(OCCN)c(c4)-c4cc3ccc4OCCN)cc2)cc1 [Compound 294] | 0.063 (≈ 0.0729 µM) | 0.15 (≈ 0.174 µM) | 0.063 (≈ 0.0729 µM) | 
16 | CCCCCCCCCC(=O)N[C@@H](CC(N)=O)C(=O)N(C)[C@@H]1C(=O)N[C@@H](C)C(=O)N[C@H](C(=O)N[C@@H](C)C(C)=O)Cc2ccc(OCCN)c(c2)-c2cc1ccc2OCCN.O=CO [Compound 266] |  |  |  | MIC (μg/mL) E. coli [1, 6]: >4 µg/mL; MIC (μg/mL) S. aureus [2, 6]: 4 µg/mL; MIC (μg/mL) (COL) (MRSA COL (NRS100); [6]): 1.5 µg/mL
17 | C[C@H](NC(=O)[C@@H]1Cc2ccc(O)c(c2)-c2cc(ccc2O)[C@H](N(C)C(=O)[C@H](CCCCN)NC(=O)c2ccc(-c3ccc(Cl)cc3)cc2)C(=O)N[C@@H](C)C(=O)N1)C(=O)CO [Compound 124] | 16 (≈ 19 µM) | 1 (≈ 1.19 µM) | 0.5 (≈ 0.594 µM) | 
18 | CCCCCCCCCC(=O)N[C@@H](CCSC)C(=O)N(C)[C@@H]1C(=O)N[C@@H](C)C(=O)N[C@H](C(=O)N[C@@H](C)C(C)=O)Cc2ccc(OCCN)c(c2)-c2cc1ccc2OCCN.O=CO [Compound 261] |  |  |  | MIC (μg/mL) E. coli [1, 6]: >4 µg/mL; MIC (μg/mL) S. aureus [2, 6]: 1.5 µg/mL; MIC (μg/mL) (COL) (MRSA COL (NRS100); [6]): 0.38 µg/mL
19 | CCC(=O)[C@H](C)NC(=O)[C@@H]1Cc2ccc(O)c(c2)-c2cc(ccc2O)[C@H](N(C)C(=O)[C@H](CCCCN)NC(=O)c2ccc(-c3ccc(Cl)cc3)cc2)C(=O)N[C@@H](C)C(=O)N1 [Compound 233] | 32 (≈ 38.1 µM) |  |  | MIC [2, 4]: 24 µg/mL (≈ 28.6 µM); MIC (MRSA COL (NRS100); [4]): 4 µg/mL (≈ 4.77 µM)
20 | C[C@@H]1NC(=O)[C@@H](N(C)C(=O)[C@H](CCCCN)NC(=O)c2ccc(-c3ccc(Cl)cc3)cc2)c2ccc(O)c(c2)-c2cc(ccc2O)C[C@@H](C(=O)NCC(=O)C(=O)O)NC1=O [Compound 239] | > 4 |  |  | MIC [2, 4]: > 4 µg/mL; MIC (MRSA COL (NRS100); [4]): 4 µg/mL (≈ 4.75 µM)
21 | CCCCc1ccc(-c2ccc(C(=O)N[C@@H](CCCCN)C(=O)N(C)[C@@H]3C(=O)N[C@@H](C)C(=O)N[C@H](C(=O)NCc4nnn[nH]4)Cc4ccc(OCCN)c(c4)-c4cc3ccc4OCCN)cc2)cc1 [Compound 328] |  | 2 (≈ 2.12 µM) | 0.5 (≈ 0.529 µM) | MIC ([1]; read-out: MIC (μg/mL) E. coli): 0.25 µg/mL (≈ 0.265 µM)
22 | C[C@@H]1NC(=O)[C@@H](N(C)C(=O)[C@H](CCCCN)NC(=O)c2ccc(-c3ccc(Cl)cc3)cc2)c2ccc(O)c(c2)-c2cc(ccc2O)C[C@@H](C(=O)N[C@@H](C)C(=O)c2c[nH]nn2)NC1=O [Compound 230] | > 64 |  |  | MIC [2, 4]: 64 µg/mL (≈ 72.9 µM); MIC (MRSA COL (NRS100); [4]): 8 µg/mL (≈ 9.11 µM)
